The term inhibition in vivo denotes how much of the control response was suppressed.

One assay deals with isolated rabbit atrium. Description: Isolated rabbit atrium, increase in functional refractory period (antiarrhythmic). As to conditions: Oryctolagus cuniculus; 10^-5 molar. The procedure:
The compounds of the invention are useful as antiarrhythmic agents because of their ability to alleviate cardiac arrhythmias. […] 198] wherein the compounds effect an increase in the functional refractory period. Compounds are dissolved in Krebs-Henseleit solution, and the percent change in the functional refractory period is monitored with an oscilloscope. […] Similarly at a concentration of 10^-^6 molar 1-(3-dimethylaminopropyl)-2-(p-bromophenyl)-4,5,6,7-tetrahydroindole hydrochloride and 1-(2-methylaminoethyl)-2-phenyl-1,4,5,6,7,8-hexahydrocyclohepta[b]pyrrole hydrochloride each effect a 150% increase in the functional refractory period.

The test system of a further assay is central nervous system. The assay can be described thus: Mouse observation procedure of S. Irwin, central nervous system depressant effects (tranquilizer). It is filed as in vivo. As to conditions: male COBS mice, behavior and reflex depression, muscle relaxation, read-out: minimum effective dose (MED)/Kilogram of body weight. The procedure:
The compounds of the invention are useful as tranquilizers because of their depressant effects on the central nervous system. The depressant effects on the central nervous system were evaluated according to the mouse observation procedure of S. Irwin, Psychopharmacologia, 13, 222 (1968). Male COBS mice are dosed with the drug, and its effects on behavior and reflex depression together with muscle relaxation determined by the degree of deviation from control scores, with activity expressed in terms of minimum effective dose (MED). The effectiveness of compounds of the invention as tranquilizers is illustrated in Table I below.

Assay [1] has as its system spontaneous hypertensive rat. The assay can be described thus: Lowering of blood pressure in the spontaneous hypertensive rat, indirect tail cuff method. It is filed as in vivo. As to conditions: 100 mg/kg of body weight. The procedure: The compounds of this invention are also useful as antihypertensive agents because of their ability to lower blood pressure in mammals. […] 135. For example, at a dose of 100 mg/kg of body weight, the compounds shown in Table III below effect the corresponding decrease in systolic blood pressure.

The subject of assay [2] is carrageenin-induced rat paw edema. Description: Carrageenin-induced rat paw edema antiinflammatory assay. It counts as in vivo. To be noted: 200 mg/kg of body weight. An excerpt:
The compounds of this invention are useful as antiinflammatory agents because of their ability to suppress inflammation in mammals. […] Exp. Biol. Med. III, 544 (1962)].
(In the carrageenan paw model, swelling and tenderness develop within hours.)

Counter-ions that a name gives are not always drawn.

With `CNCCCn1c(-c2ccccc2)cc2c1CCCCC2` [Example 39, 1-(3-methylaminopropyl)-2-phenyl-1,4,5,6,7,8-hexahydrocyclohepta[b]pyrrole . HCl], the activation at 10 µM with isolated rabbit atrium is 214%. Moreover, in the assay on central nervous system, the minimal effective dose was found to be 50 mg/kg. In assay [1], the “decrease in systolic blood pressure” value is 42 mm Hg.

Compound `CCN(CC)CCCn1c(-c2ccccc2)cc2c1CCCCC2.Cl` [Example 41, 1-(3-diethylaminopropyl)-2-phenyl-1,4,5,6,7,8-hexahydrocyclohepta[b]pyrrole hydrochloride] returned an activation at 10 µM in the assay on isolated rabbit atrium of 264%. The minimal effective dose with central nervous system turned out to be 50 mg/kg. For the same compound, at 200 mg/kg the inhibition in vivo in assay [2] was 50%. For the same compound, the “decrease in systolic blood pressure” value in assay [1] is 49 mm Hg.

`CN(C)CCCn1c(-c2ccccc2)cc2c1CCc1ccccc1-2` [Example 31, hydrochloride]: in the assay on central nervous system, the minimal effective dose was determined as 20 mg/kg. The compound also displayed an inhibition in vivo at 200 mg/kg in assay [2] of 56%. The “decrease in systolic blood pressure” value in assay [1] is given as 30 mm Hg.

Compound `CN(C)CCCn1c(-c2ccccc2)cc2c1CCCCC2.Cl` [Example 40, 1-(3-dimethylaminopropyl)-2-phenyl-1,4,5,6,7,8-hexahydrocyclohepta[b]pyrrole hydrochloride] came in with an activation at 10 µM in the assay on isolated rabbit atrium of 275%. In addition, in the assay on central nervous system, the minimal effective dose worked out at 25 mg/kg. The “decrease in systolic blood pressure” value in assay [1] is 50 mm Hg.

These data come from US3997557A, “Substituted N-aminoalkylpyrroles” (American Hoechst Corporation, priority 1974, dated 1976).
